Test results taken from patent US20240277829A1, “HIV-1 VACCINATION AND SAMT-247 MICROBICIDE TO PREVENT HIV-1 INFECTION” (priority 2021, published 2024).

How the values were obtained:
[1] = test system: mucosal Th1 and Th2 cells; assay: Frequencies and cytokine levels of macaque rectal mucosal T cells following SAMT-247 and PMA stimulation; assay type: cell-based; conditions: following PMA stimulation
Excerpt: Additionally, rectal tissue from 9 macaques was used for an in vitro study. The age-matched macaques from this separate study (P204) included 4 animals vaccinated against HIV and 5 naïve animals, all challenged with SHIV. Rectal tissue was obtained post challenge from 7 infected and 2 uninfected animals for the P204 study analysis. Extra cells were available from that collection and were used here for the in vitro study.
Frequencies and cytokine levels of macaque rectal mucosal NK cells and T cells following SAMT-247 and PMA stimulation. NK/ILC and T cell frequencies and cytokine levels were measured in macaque rectal mucosa. Freshly collected rectal biopsies were processed to single cells and cultured in R10 in the presence/or absence of SAMT-247 and/or PMA for 12 hours. Subsequently, cells were stained for live cells with Live/Dead Blue dye (cat. #L34962, 0.5 μl) from Thermofisher; followed by surface staining with the following: BUV737 anti-CD3 (SP34-2; cat. #741872, 5 μl), BV711 anti-CD4 (L200; cat. #563913, 5 μl), BV650 anti-NKp44 (P44-8; cat. #744302, 5 μl), Alexa700 anti-CD20 (2H7; cat. #560631, 5 μl), BV786 anti-CD45 (D058-1283; cat. #563861, 5 μl) from BD Biosciences; APC-H7 anti-CD11b (ICRF44; cat. #47-0118-42, 5 μl), PE-Cy5 anti-CD95 (ICRF44; cat. #15-0959-42, 5 μl) from eBioscience; BV570 anti-CD8 (RPA-T8; cat. #301038, 5 μl), BV605 anti-CCR6 (G034E3; cat. #353420, 5 μl), APC anti-CXCR3 (G025H7; cat. #353708, 5 μl), from Biolegend and PE-Cy7 anti-NKG2A (Z199; cat. #B10246, 5 μl) from Beckman coulter for 30 minutes at room temperature. This was followed by permeabilization with a FOX3-transcription buffer set (cat. #00-5523-00) from eBioscience according to the manufacture's recommendation and subsequently intracellular staining with the following: BV750 anti-TNF-α (MAB11; cat. #566359, 5 μl), BUV395 anti-IFN-γ (B27; cat. #563563, 5 μl), BV510 anti-GranB (GB11; cat. #563388, 5 μl), BV421 anti-IL-10 (JES3-9D7; cat. #564053, 5 μl) from BD Biosciences; PE-Cy5.5 anti-IL-17 (BL168; cat. #512314, 5 μl) from Biolegend; and FITC anti-Perforin (pf-344; cat. #3465-7, 5 μl) from MABTECH for 30 minutes at room temperature. Flow cytometry acquisitions were performed on a FACSymphony A5 and examined using FACSDiva software (BD Biosciences).

SIVmac251 = conditions: cited from earlier work

CC(=O)Sc1ccccc1C(=O)NCCC(N)=O [SAMT-247]
IL-10 production in mucosal Th1 cells [1]: increase | TNF-α production in mucosal Th1 and Th2 cells [1]: significant decrease | effect in the SIVmac251 model (SIVmac251; SAMT-247 alone 3 hours prior to each challenge, animals mock immunized with empty Ad vector and alum (Helmold Hait et al. 2020)): protective effect | risk of SIVmac251 acquisition (SIVmac251; gel given four hours before challenge exposure (Helmold Hait et al. 2020)): unable to decrease
